Read-outs that look alike come from different tables or passages of the source.
Key:
Drosophila OR10a = molecular target: T1, Drosophila OR10a (Drosophila melanogaster, UniProt Q9VYZ1); experiment: Calcium ion fluorescence (GCaMP6) assay, OR10a stable HEK293 cell line; type: cell-based
T1 construct: expressed in transfected cells
T1 sequence (Q9VYZ1 1-406): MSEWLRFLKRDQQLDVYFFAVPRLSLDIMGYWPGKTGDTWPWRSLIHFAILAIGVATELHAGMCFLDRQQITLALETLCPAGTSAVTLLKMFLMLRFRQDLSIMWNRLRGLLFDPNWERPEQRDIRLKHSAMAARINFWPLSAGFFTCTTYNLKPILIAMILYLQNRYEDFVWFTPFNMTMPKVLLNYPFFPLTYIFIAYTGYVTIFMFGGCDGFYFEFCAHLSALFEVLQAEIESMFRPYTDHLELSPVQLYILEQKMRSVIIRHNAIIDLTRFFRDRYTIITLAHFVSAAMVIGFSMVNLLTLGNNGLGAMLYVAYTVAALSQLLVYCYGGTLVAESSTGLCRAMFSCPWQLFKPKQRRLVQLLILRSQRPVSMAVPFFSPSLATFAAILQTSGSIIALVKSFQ
T1 sequence (Q9VNB5 1-486 partner): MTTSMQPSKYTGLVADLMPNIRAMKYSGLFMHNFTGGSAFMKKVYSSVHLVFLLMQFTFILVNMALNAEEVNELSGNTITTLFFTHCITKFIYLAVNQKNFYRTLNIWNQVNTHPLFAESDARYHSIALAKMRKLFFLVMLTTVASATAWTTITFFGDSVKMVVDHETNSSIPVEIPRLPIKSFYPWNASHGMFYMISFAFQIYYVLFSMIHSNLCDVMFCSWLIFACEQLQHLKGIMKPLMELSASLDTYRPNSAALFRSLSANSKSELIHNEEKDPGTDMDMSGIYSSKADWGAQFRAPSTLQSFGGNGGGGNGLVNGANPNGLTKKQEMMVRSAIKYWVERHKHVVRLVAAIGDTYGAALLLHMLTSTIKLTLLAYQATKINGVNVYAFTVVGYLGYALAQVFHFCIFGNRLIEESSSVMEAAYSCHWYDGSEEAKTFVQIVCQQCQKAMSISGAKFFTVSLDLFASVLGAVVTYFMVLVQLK
Summary of the method: (§1)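 Responses are VUAA1-normalized ΔF: each VOC-evoked calcium signal, (FMAX−F0)/F0 over 30 s after injection, divided by the same line's mean 50 µM VUAA1 response. Cells were doxycycline-induced HEK293 with GCaMP6 and the cognate Drosophila OR, in HEPES buffer pH 7.3; ligands tested 0.01–100 μM.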

Drosophila OR98a = molecular target: T2, Drosophila OR98a (Drosophila melanogaster, UniProt Q9VAZ3); experiment: Calcium ion fluorescence (GCaMP6) assay, OR98a stable HEK293 cell line; type: cell-based; details: for Average response: average of biological replicates, fraction of VUAA1 response
T2 construct: expressed in transfected cells
T2 sequence (Q9VAZ3 1-397): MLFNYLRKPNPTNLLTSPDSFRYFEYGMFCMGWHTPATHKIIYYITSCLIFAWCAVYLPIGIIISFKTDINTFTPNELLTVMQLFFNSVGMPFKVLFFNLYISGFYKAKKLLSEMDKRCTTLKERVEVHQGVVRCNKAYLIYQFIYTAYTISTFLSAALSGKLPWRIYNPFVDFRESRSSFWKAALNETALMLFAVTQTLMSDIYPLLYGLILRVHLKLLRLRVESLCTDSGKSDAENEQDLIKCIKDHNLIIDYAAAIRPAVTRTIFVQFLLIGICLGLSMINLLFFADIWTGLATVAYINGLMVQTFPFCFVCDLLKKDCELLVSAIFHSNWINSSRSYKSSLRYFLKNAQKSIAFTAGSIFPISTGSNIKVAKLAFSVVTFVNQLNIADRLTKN
T2 sequence (Q9VNB5 1-486 partner): T1 sequence (Q9VNB5 1-486 partner)
Summary of the method: as §1

[1] = HEK293, 1 μM VOC, 50 μM VUAA1 = 1, responses not exceeding 0.05 considered 0, read-out: OR10a Average response (VUAA1-normalized)
[2] = HEK293, 10 μM VOC, 50 μM VUAA1 = 1, responses not exceeding 0.05 considered 0, read-out: OR10a Average response (VUAA1-normalized)
[3] = HEK293, 100 μM VOC, 50 μM VUAA1 = 1, responses not exceeding 0.05 considered 0, read-out: OR10a Average response (VUAA1-normalized)
[4] = HEK293, read-out: OR10a response (VUAA1-normalized response), VOC concentration 1 μM
[5] = HEK293, read-out: OR10a response (VUAA1-normalized response), VOC concentration 10 μM
[6] = HEK293, read-out: OR10a response (VUAA1-normalized response), VOC concentration 100 μM
[7] = HEK293, read-out: Average response
[8] = HEK293, read-out: OR98a response (VUAA1-normalized response)
[9] = concentration 1, normalized fluorescence change, values below 0.05 threshold given as 0
[10] = concentration 10, normalized fluorescence change, values below 0.05 threshold given as 0
[11] = concentration 100, normalized fluorescence change, values below 0.05 threshold given as 0
[12] = ligand concentration 1 (unit not given), threshold 0.05, below shown as 0
[13] = ligand concentration 10 (unit not given), threshold 0.05, below shown as 0
[14] = ligand concentration 100 (unit not given), threshold 0.05, below shown as 0

| SMILES | activation at 1 µM (Drosophila OR10a; [1]) [%] | activation at 10 µM (Drosophila OR10a; [2]) [%] | activation at 100 µM (Drosophila OR10a; [3]) [%] | activation at 1 µM (Drosophila OR10a; [4]) [%] | activation at 10 µM (Drosophila OR10a; [5]) [%] | activation at 100 µM (Drosophila OR10a; [6]) [%] | activation at 1 µM (Drosophila OR98a; [7]) [%] | activation at 10 µM (Drosophila OR98a; [7]) [%] | activation at 100 µM (Drosophila OR98a; [7]) [%] | activation at 1 µM (Drosophila OR98a; [8]) [%] | activation at 10 µM (Drosophila OR98a; [8]) [%] | activation at 100 µM (Drosophila OR98a; [8]) [%] | DF norm AVERAGE OR98a (Drosophila OR98a; [9]) | DF norm AVERAGE OR98a (Drosophila OR98a; [10]) | DF norm AVERAGE OR10a (Drosophila OR10a; [12]) | DF norm AVERAGE OR10a (Drosophila OR10a; [13]) | DF norm AVERAGE OR10a (Drosophila OR10a; [14]) | DF norm AVERAGE OR98a (Drosophila OR98a; [12]) | DF norm AVERAGE OR98a (Drosophila OR98a; [13]) | DF norm AVERAGE OR98a (Drosophila OR98a; [14]) | also measured |
| --- | --- | --- | --- | --- | --- | --- | --- | --- | --- | --- | --- | --- | --- | --- | --- | --- | --- | --- | --- | --- | --- |
| CCCC(O)CC (stereo not shown) [3-hexanol] | 16 | 2.57 | 6 | 16 | 0 | 6 | 0 | 19 | 1.15 | 0 | 19 | 0 | 0 | 0.194 |  |  |  |  |  |  | DF norm AVERAGE OR98a (Drosophila OR98a; [11]): 0 |
| COc1cccc(OC)c1 [1,3-dimethoxy benzene] | 0 | 0 | 0 | 0 | 0 | 0 | 0 | 1.66 | 3.31 | 0 | 0 | 0 | 0 | 0 |  |  |  |  |  |  | DF norm AVERAGE OR10a (Drosophila OR10a): 0; DF norm AVERAGE OR98a (Drosophila OR98a; [11]): 0 |
| C=CC(C)(O)CCC=C(C)C (stereo not shown) [linalool] | 2 | 7 | 0 |  |  |  | 0 | 0 | 4 |  |  |  |  |  | 0 | 0.06934 | 0 | 0 | 0 | 0 | OR10a response (VUAA1-normalized) at 1 μM (Drosophila OR10a; OR10a cell line, VOC concentration 1 μM): 0.00; OR10a response (VUAA1-normalized) at 10 μM (Drosophila OR10a; OR10a cell line, VOC concentration 10 μM): 0.07; OR10a response (VUAA1-normalized) at 100 μM (Drosophila OR10a; OR10a cell line, VOC concentration 100 μM): 0.00; OR98a response (VUAA1-normalized) at 1 μM (Drosophila OR98a; OR98a cell line, VOC concentration 1 μM): 0.00; OR98a response (VUAA1-normalized) at 10 μM (Drosophila OR98a; OR98a cell line, VOC concentration 10 μM): 0.00; OR98a response (VUAA1-normalized) at 100 μM (Drosophila OR98a; OR98a cell line, VOC concentration 100 μM): 0.00 |
| CC/C=C/CCO [e3-hexenol] |  |  |  |  |  |  |  |  |  |  |  |  |  |  | 0 | 0 | 0.07404 | 0 | 0 | 0 | OR10a Average response (VUAA1-normalized) (Drosophila OR10a; 1 μM VOC, 50 μM VUAA1 = 1, responses not exceeding 0.05 considered 0): 0.0153; OR10a Average response (VUAA1-normalized) (Drosophila OR10a; 10 μM VOC, 50 μM VUAA1 = 1, responses not exceeding 0.05 considered 0): 0.00; OR10a Average response (VUAA1-normalized) (Drosophila OR10a; 100 μM VOC, 50 μM VUAA1 = 1, responses not exceeding 0.05 considered 0): 0.074; Average response (Drosophila OR98a; cc. 1 µM, OR98a cell line): 0.00; Average response (Drosophila OR98a; cc. 10 µM, OR98a cell line): 0.00; Average response (Drosophila OR98a; cc. 100 µM, OR98a cell line): 0.00 |
| CCCCOC(C)=O [butyl acetate] |  |  |  | 0 | 0 | 0 | 3.31 | 0 | 4.29 | 0 | 0 | 0 |  |  | 0 | 0 | 0 | 0 | 0 | 0 | activation at 1 µM (Drosophila OR10a; HEK293, read-out: OR10a Average response (VUAA1-normalized), 1 μM VOC, 50 μM VUAA1 = 1, responses not exceeding 0.05 considered 0): 3%; activation at 10 µM (Drosophila OR10a; HEK293, read-out: OR10a Average response (VUAA1-normalized), 10 μM VOC, 50 μM VUAA1 = 1, responses not exceeding 0.05 considered 0): 0%; activation at 100 µM (Drosophila OR10a; HEK293, read-out: OR10a Average response (VUAA1-normalized), 100 μM VOC, 50 μM VUAA1 = 1, responses not exceeding 0.05 considered 0): 5% |

From article PMC10709440, “High-throughput ligand profile characterization in novel cell lines expressing seven heterologous insect olfactory receptors for the detection of volatile plant biomarkers” (Scientific Reports, 2023)
